Reference: US20140329275A1, “BIOCATALYSIS CELLS AND METHODS” (REGENTS OF THE UNIVERSITY OF MINNESOTA, priority 2011, published 2014)

How the values were obtained:
IPDC = IPDC (Salmonella enterica, UniProt H9L492); details: ketoleucine vs ketovaline
KIVD = details: Yep et al., Bioorg. Chem. 34:325-336 (2006); cited from earlier work

Sequence of IPDC (H9L492 1-550): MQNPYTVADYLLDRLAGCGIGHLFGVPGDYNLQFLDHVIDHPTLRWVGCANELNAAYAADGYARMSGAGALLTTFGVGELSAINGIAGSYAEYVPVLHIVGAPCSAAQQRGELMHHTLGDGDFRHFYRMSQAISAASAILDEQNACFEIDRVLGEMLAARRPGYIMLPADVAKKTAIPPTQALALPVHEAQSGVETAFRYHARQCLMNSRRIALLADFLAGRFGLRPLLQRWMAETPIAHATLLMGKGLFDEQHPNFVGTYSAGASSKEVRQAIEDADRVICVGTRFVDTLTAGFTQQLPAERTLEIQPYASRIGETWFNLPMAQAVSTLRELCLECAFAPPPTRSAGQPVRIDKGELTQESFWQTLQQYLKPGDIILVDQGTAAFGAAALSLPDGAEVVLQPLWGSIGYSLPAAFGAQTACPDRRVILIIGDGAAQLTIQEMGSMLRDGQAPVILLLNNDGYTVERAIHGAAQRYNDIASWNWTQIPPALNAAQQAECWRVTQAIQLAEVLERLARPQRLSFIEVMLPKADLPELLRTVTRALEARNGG

Row | SMILES | specificity constant kcat/Km of IPDC, fold higher than towards ketovaline (IPDC) | Km (KIVD) | kcat of KIVD (KIVD)
1 | CC(C)CC(=O)C(=O)O [ketoleucine] | 4 fold | 37 mM | 49 s⁻¹
2 | CC(C)C(=O)C(=O)O [ketovaline] |  | 2.8 mM | 48 s⁻¹
